Data on one compound can be found in patent US20140005163A1 (NOVARTIS AG, priority 2010, published 2014).

The subject of experiment [1] is PKB Ser473 phosphorylation in Rat1-myr-HA-p110 beta cells. In words: Reverse protein array assay, PKB Ser473 phosphorylation in Rat1-myr-p110 beta cells. The following applies: 0.5 h, pAkt Ser473, 30 minutes incubation, read-out: p-PKB IC50. The class given is cell-based. In outline:
(§1)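 Rat1 cells expressing myristoylated HA-tagged p110 alpha, beta or delta were plated for at least 20 h, then exposed to 8-step serial compound dilutions (0.2% DMSO final) for 30 min at 37 °C. Lysates were spotted at four dilutions on protein microarrays, and relative fluorescence intensity of phospho-Ser473 PKB was calculated.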

For a further experiment, the target named is T1, PI3K delta (Homo sapiens, UniProt O00329).
T1 construct: for the full-length p110-d subunit are generated and fused by overlapping PCR; p85(iSH2) fusion partner (see partner chain) (N); His tag (C); made in house; host or cells: baculovirus; Tn5 (Trichoplusia ni) or TiniPro insect cells
Put plainly: PI3K delta kinase assay (Kinase-Glo luminescence). Format: biochemical. The method in brief:
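ATP depletion was measured by Kinase-Glo luminescence after a 60-minute room-temperature reaction containing 1 μM ATP, 10 μg/mL PI and 10 nM His-tagged p85(iSH2)-linker-p110δ (BV-1060). Buffer: Tris pH 7.5, 3 mM MgCl2, 50 mM NaCl, 0.05% CHAPS, 1 mM DTT. IC50 values came from four-parameter fits over eight concentrations.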

Experiment [2] deals with S6 Ribosomal Protein phosphorylation Ser235/236 in TSC1 null mouse embryo fibroblast (MEF) cells. In words: Reverse protein array assay, S6 Ribosomal Protein phosphorylation Ser235/236 in TSC1 null MEF cells. The class given is cell-based. Conditions: 1 h, pS6 ribosomal protein Ser235/236, 60 minutes incubation, read-out: p-S6 IC50. In outline: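 TSC1−/− MEFs, seeded and held ≥20 h at 37 °C/5% CO2, were exposed to 8-step serial compound dilutions (0.02% DMSO final; DMSO vehicle control) for 60 min at 37 °C. Cells were then lysed on ice for 10 min and lysates spotted onto reverse protein array chips.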

The subject of experiment [3] is PKB Ser473 phosphorylation in Rat1-myr-HA-p110 delta cells. In words: Reverse protein array assay, PKB Ser473 phosphorylation in Rat1-myr-p110 delta cells. The class given is cell-based. The following applies: read-out: p-PKB IC50. In outline:
as §1

The structures appear in SMILES notation.

T1 sequence (O00329 with tags, fused parts or gaps limits assumed): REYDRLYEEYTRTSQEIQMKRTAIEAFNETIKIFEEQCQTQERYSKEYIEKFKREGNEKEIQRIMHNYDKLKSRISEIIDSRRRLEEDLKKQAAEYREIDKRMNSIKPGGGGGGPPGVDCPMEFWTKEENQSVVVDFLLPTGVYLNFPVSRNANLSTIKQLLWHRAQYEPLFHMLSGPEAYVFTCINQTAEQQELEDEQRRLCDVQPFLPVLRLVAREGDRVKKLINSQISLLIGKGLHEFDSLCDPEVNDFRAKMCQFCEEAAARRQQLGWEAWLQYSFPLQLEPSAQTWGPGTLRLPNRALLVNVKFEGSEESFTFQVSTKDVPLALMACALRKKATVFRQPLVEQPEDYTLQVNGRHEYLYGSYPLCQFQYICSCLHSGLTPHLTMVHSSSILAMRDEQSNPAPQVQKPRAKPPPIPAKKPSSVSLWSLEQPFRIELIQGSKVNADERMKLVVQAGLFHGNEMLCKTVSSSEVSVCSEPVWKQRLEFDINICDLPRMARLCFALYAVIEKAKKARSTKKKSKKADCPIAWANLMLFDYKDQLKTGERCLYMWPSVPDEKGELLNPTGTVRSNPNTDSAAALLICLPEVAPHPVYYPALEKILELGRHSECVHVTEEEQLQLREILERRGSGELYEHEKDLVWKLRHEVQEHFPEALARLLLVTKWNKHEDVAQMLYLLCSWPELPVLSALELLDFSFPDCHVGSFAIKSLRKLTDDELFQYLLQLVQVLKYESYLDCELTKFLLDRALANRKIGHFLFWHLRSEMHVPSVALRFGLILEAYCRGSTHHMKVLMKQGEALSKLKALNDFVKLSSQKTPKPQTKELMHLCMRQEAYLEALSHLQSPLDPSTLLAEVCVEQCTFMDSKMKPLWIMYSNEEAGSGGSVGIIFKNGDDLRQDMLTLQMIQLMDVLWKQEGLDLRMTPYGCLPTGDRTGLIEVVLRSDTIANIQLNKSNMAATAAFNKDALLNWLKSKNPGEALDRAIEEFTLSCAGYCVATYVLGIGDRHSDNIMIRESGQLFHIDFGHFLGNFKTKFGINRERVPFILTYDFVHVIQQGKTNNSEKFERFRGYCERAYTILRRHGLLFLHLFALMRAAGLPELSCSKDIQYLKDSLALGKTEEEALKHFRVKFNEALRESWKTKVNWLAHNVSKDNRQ

Regarding `COc1ccc(-c2ccc3ncc4c(c3n2)n(-c2cc(C)nn2C)c(=O)n4C)cc1OC` [Example 253, 8-(3,4-Dimethoxy-phenyl)-1-(2,5-dimethyl-2H-pyrazol-3-yl)-3-methyl-1,3-dihydro-1,3,5,9-tetraaza-cyclopenta[a]naphthalen-2-one], the IC50 (in general, the concentration that gives 50% inhibition) in experiment [1] was 16 nM; at PI3K delta, 5 nM; in experiment [2], under 5 nM; in experiment [3], 44 nM.
